Assay results taken from patent US6498166B1, “Pyrazolopyridines” (SmithKline Beecham Corporation, priority 1999, dated 2002).

What was measured:
human COX-2 = molecular target: T1, human COX-2 (Homo sapiens, UniProt P35354); assay: Inhibition of PGE2 release in COS cells stably transfected with human COX-2; assay type: cell-based; conditions: COS cells transfected with human COX-2; 1 hour preincubation, 30 μM arachidonic acid for 15 minutes, PGE2 by enzyme immunoassay
T1 construct: expressed in transfected cells; host or cells: COS cells (stably transfected)
T1 sequence (P35354 18-604): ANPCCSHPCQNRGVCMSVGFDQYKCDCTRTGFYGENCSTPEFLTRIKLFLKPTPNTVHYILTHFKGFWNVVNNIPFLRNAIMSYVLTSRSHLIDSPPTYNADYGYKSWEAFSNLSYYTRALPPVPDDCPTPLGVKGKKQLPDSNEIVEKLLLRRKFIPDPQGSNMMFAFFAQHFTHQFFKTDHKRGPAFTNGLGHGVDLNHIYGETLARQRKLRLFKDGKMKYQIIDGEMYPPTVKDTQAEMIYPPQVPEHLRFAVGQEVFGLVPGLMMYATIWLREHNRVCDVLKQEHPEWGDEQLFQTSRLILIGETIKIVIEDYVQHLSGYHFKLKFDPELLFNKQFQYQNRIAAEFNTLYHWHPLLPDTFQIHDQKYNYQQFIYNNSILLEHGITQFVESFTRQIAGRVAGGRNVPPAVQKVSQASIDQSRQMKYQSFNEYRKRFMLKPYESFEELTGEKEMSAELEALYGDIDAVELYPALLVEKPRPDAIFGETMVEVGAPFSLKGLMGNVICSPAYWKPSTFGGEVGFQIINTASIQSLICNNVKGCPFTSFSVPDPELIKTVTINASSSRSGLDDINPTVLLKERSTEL
Procedure: (§1) Inhibitory activity against human COX-1 and COX-2 was assessed in COS cells which had been stably transfected with cDNA for human COX-1 and human COX-2. 24 Hours prior to experiment, COS cells were transferred from the 175 cm^2 flasks in which they were grown, onto 24-well cell culture plates using the following procedure. The incubation medium (Dulbecco's modified eagles medium (DMEM) supplemented with heat-inactivated foetal calf serum (10% v/v), penicillin (100 IU/ml), streptomycin (100μg/ml) and geneticin (600 μg/ml)) was removed from a flask of confluent cells (1 flask at confluency contains approximately 1×10^7 cells). 10 ml of phosphate buffered saline (PBS) was added to the flask to wash the cells. Having discarded the PBS, cells were then rinsed in 10 ml trypsin for 20 seconds, after which the trypsin was removed and the flask placed in an incubator (37°) for 1-2 minutes until cells became detached from the flask. The flask was then removed from the incubator and cells resuspended in 10 ml of fresh incubation medium. The contents of the flask was transferred to a 250 ml sterile container and the volume of incubation medium subsequently made up to 100 ml. 1 ml cell suspension was pipetted into each well of 4×24-well cell culture plates. The plates were then placed in an incubator (37° C., 95% air/5% CO2) overnight. If more than 1 flask of cells were required, the cells from the individual flasks were combined before being dispensed into the 24-well plates.
(§2) Following the overnight incubation, the incubation medium was completely removed from the 24-well cell culture plates and replaced with 250 μl fresh DMEM (37° C.). The test compounds were made up to 250× the required test concentration in DMSO and were added to the wells in a volume of 1 μl. Plates were then mixed gently by swirling and then placed in an incubator for 1 hour (37° C., 95% air/5% CO2). Following the incubation period, 10 μl of arachidonic acid (750 μM) was added to each well to give a final arachidonic acid concentration of 30 μM. Plates were then incubated for a further 15 minutes, after which the incubation medium was removed from each well of the plates and stored at −20° C., prior to determination of prostaglandin E2 (PGE2) levels using enzyme immunoassay. The inhibitory potency of the test compound was expressed as an IC50 value, which is defined as the concentration of the compound required to inhibit the PGE2 release from the cells by 50%. The selectivity ratio of inhibition of COX-1 versus COX-2 was calculated by comparing respective IC50 values. The following IC50 values for inhibition of COX-2 and COX-1 were obtained for compounds of the invention: […]

human COX-1 = molecular target: T2, human COX-1 (Homo sapiens, UniProt P23219); assay: Inhibition of PGE2 release in COS cells stably transfected with human COX-1; assay type: cell-based; conditions: COS cells transfected with human COX-1; 1 hour preincubation, 30 μM arachidonic acid for 15 minutes, PGE2 by enzyme immunoassay
T2 construct: expressed in transfected cells; host or cells: COS cells (stably transfected)
Procedure: as §1, §2

T2 sequence (P23219 24-599): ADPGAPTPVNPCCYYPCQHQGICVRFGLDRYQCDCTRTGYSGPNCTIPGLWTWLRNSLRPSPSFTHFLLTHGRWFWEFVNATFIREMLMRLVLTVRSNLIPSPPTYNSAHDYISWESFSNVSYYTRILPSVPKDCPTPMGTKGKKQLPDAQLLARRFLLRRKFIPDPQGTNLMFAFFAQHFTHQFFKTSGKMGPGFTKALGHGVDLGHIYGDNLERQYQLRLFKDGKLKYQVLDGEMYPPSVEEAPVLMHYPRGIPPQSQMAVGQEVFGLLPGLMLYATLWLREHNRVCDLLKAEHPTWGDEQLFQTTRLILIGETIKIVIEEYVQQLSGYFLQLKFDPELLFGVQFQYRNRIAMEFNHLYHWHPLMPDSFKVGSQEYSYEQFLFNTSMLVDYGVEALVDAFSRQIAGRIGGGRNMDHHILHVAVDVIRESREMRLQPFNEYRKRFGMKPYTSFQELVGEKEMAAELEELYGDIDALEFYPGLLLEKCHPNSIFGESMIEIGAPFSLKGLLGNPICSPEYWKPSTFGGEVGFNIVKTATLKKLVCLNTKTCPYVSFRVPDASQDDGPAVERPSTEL

SMILES	IC50 (human COX-2) [nM]	IC50 (human COX-1) [nM]
N#Cc1ccc2c(-c3ccc(S(N)(=O)=O)cc3)c(-c3ccc(F)cc3)nn2c1 [Example 1(iv), 4-[6-Cyano-2-(4-fluorophenyl)pyrazolo[1,5-a]pyridin-3-yl]benzenesulfonamide]	21	20900
NS(=O)(=O)c1ccc(-c2c(-c3ccc(F)cc3)nn3cc(Br)ccc23)cc1 [Example 3(vi), 4-[6-Bromo-2-(4-fluorophenyl)pyrazolo[1,5-a]pyridin-3-yl]benzenesulfonamide]	1	6760
NS(=O)(=O)c1ccc(-c2c(-c3ccc(F)cc3)nn3cc(Cl)ccc23)cc1 [Example 5(vi), 4-[6-Chloro-2-(4-fluorophenyl)pyrazolo[1,5-a]pyridin-3-yl]benzenesulfonamide]	21	20900
CCOc1ccc(-c2nn3cc(Cl)ccc3c2-c2ccc(S(N)(=O)=O)cc2)cc1 [Example 6, 4-[6-Chloro-2-(4-ethoxyphenyl)pyrazolo[1,5-a]pyridin-3-yl]benzenesulfonamide]	12	> 100000
NS(=O)(=O)c1ccc(-c2c(-c3cccc(F)c3)nn3cc(Cl)ccc23)cc1 [Example 7, 4-[6-Chloro-2-(3-fluorophenyl)pyrazolo[1,5-a]pyridin-3-yl]benzenesulfonamide]	1	6760

Results, then the compound that gave them:

IC50 (human COX-2) [nM]	IC50 (human COX-1) [nM]	SMILES
5	> 100000	CS(=O)(=O)c1ccc(-c2c(-c3ccc(F)cc3)nn3cc(Br)ccc23)cc1 [4(iii), 6-Bromo-2-(4-fluorophenyl)-3-[4-(methylsulfonyl)phenyl]pyrazolo[1,5-a]pyridine]
5	> 100000	NS(=O)(=O)c1ccc(-c2c(-c3ccccc3)nn3cc(Cl)ccc23)cc1 [8(iii), 4-[6-Chloro-2-phenyl-pyrazolo[1,5-a]pyridin-3-yl]benzenesulfonamide]
12	> 100000	CS(=O)(=O)c1ccc(-c2c(-c3ccc(F)cc3)nn3cc(C#N)ccc23)cc1 [Example 2, 2-(4-Fluorophenyl)-3-[4-(methylsulfonyl)phenyl]pyrazolo[1,5-a]pyridine-6-carbonitrile]
